Reference: patent publication US11872202B2, “Pleuromutilin cinnamic acid ester compounds with activities against antibiotic-resistant infections” (SHAANXI UNIVERSITY OF SCIENCE AND TECHNOLOGY, priority 2021, dated 2024)
Values after ≈ are worked out from the molar mass of the structure shown. Where two headings read alike, the source gives them in different places.

What was measured:
Type in all cases: cell-based
[1] = tested on: Escherichia coli ATCC25922; assay: MIC, micro-broth dilution method; conditions: Escherichia coli ATCC25922; 37° C., 20-22 h; read-out: Minimum inhibitory concentration
Protocol: (§1) The minimum inhibitory concentration (MIC) of pleuromutilin cinnamate easters and their starting materials was tested by a micro-broth dilution method, with retamoline, vornimulin and tiamulin as positive controls.
(§2) The experimental strains included Gram-positive bacteria: Methicillin-sensitive Staphylococcus epidermidis ATCC12228, Staphylococcus aureus ATCC29213 and ATCC25923, and Methicillin-resistant Staphylococcus aureus ATCC33591; Gram-negative bacteria: Acinetobacter baumannii ATCC19606 and E. coli Bacillus ATCC25922 (the strains used were from the American type culture collection (ATCC)).

[2] = tested on: Staphylococcus aureus ATCC25923; assay: MIC, micro-broth dilution method; conditions: Staphylococcus aureus ATCC25923; 37° C., 20-22 h; read-out: Minimum inhibitory concentration
Protocol: as §1, §2

[3] = tested on: Acinetobacter baumannii ATCC19606; assay: MIC, micro-broth dilution method; conditions: for MIC: Acinetobacter baumannii ATCC19606, 37° C., 20-22 h, read-out: Minimum inhibitory concentration; for inhibition compared with tiamulin: Acinetobacter baumannii, statement in words from Table 1
Protocol: as §1, §2

[4] = tested on: Staphylococcus aureus ATCC29213; assay: MIC, micro-broth dilution method; conditions: Staphylococcus aureus ATCC29213; 37° C., 20-22 h; read-out: Minimum inhibitory concentration
Protocol: as §1, §2

[5] = tested on: Methicillin-resistant Staphylococcus aureus ATCC33591; assay: MIC, micro-broth dilution method; conditions: Methicillin-resistant Staphylococcus aureus ATCC33591; 37° C., 20-22 h; read-out: Minimum inhibitory concentration
Protocol: as §1, §2

[6] = tested on: Methicillin-sensitive Staphylococcus epidermidis ATCC12228; assay: MIC, micro-broth dilution method; conditions: for MIC: Methicillin-sensitive Staphylococcus epidermidis ATCC12228, 37° C., 20-22 h, read-out: Minimum inhibitory concentration; for inhibitory effect compared with the three tested positive controls: methicillin-sensitive Staphylococcus epidermidis, statement in words from Table 1
Protocol: as §1, §2

[7] = In vitro cytotoxicity, CCK-8 method; conditions: human, read-out: median inhibitory concentration (IC50), cytotoxicity
Protocol: The in vitro cytotoxicity of pleuromutilin easters was determined by a CCK-8 method (the kit used was purchased from Shanghai Xige Biotechnology Co., Ltd.). Take healthy HepG2, HEK293 and A549 cell culture fluids (the cells used were from the American type culture collection (ATCC), and the used cell culture fluids were purchased from Thermo Fisher Scientific (China) Co., Ltd.), inoculate in a sterile 96-well cell culture plate, 180 μL/well, ensure that the number of cells is 1*10^4/well, place in a 37° C. CO2 incubator with a volume fraction of 5%, and culture for 24 h until the cells completely adhered. Add the test and control solutions, 20 µL per well, set 6 duplicate wells in parallel, and incubate at 37° C. in a CO2 incubator with a volume fraction of 5% at 37° C. for 24 h, and observe the cells under a microscope. Add 20 μL of 5 g/L CCK-8 solution to each well, and continue to culture for 4 h. The culture was terminated, the culture medium in the wells was gently aspirated, 100 μL of dimethyl sulfoxide was added to each well, and the wells were shaken at low speed for 10 min on a shaker to fully dissolve the crystals. The absorbance value was measured, and the half inhibitory concentration (IC50) was then calculated. The cytotoxicity to HepG2, HEK293 and A549 cells was evaluated according to the half inhibitory concentration (IC50).

[8] = tested on: the different bacteria tested; assay: MIC, micro-broth dilution method, overall comparison over all strains; conditions: statement in words from Table 1
Protocol: as §1, §2

SMILES	MIC [1] [µg/mL]	MIC [2] [µg/mL]	MIC [3] [µg/mL]	MIC [4] [µg/mL]	MIC [5] [µg/mL]	MIC [6] [µg/mL]	inhibitory effect compared with the three tested positive controls [6]	IC50 at 24 h ([7]; A549 cells) [µM]	IC50 at 24 h ([7]; HEK293 cells) [µM]	IC50 at 24 h ([7]; HepG2 cells) [µM]	inhibition compared with tiamulin [3]	inhibitory activity compared with the three tested positive controls [8]
C=C[C@]1(C)C[C@@H](OC(=O)COC(=O)/C=C/c2ccc(OC)cc2)[C@]2(C)[C@H](C)CC[C@]3(CCC(=O)[C@H]32)[C@@H](C)[C@@H]1O [Compound 4, (E)-2-(((3aR,4R,5R,8S,9R,12R)-8-hydroxy-4,7,9,12-tetramethyl-3-oxo-7-vinyldecahydro-4,9a-propanocyclopenta[8]annulen-5-yl)oxy)-2-oxoethyl 3-(4-methoxyphenyl)acrylate]	32 (≈ 59.4 µM)	4 (≈ 7.43 µM)	> 256	8 (≈ 14.9 µM)	16 (≈ 29.7 µM)	2 (≈ 3.71 µM)	better than that of the positive controls	50.8	90.2	83.7		
C=C[C@]1(C)C[C@@H](OC(=O)COC(=O)/C=C/c2cccc(C#N)c2)[C@]2(C)[C@H](C)CC[C@]3(CCC(=O)[C@H]32)[C@@H](C)[C@@H]1O [Compound 5, (E)-2-(((3aR,4R,5R,8S,9R,12R)-8-hydroxy-4,7,9,12-tetramethyl-3-oxo-7-vinyldecahydro-4,9a-propanocyclopenta[8]annulen-5-yl)oxy)-2-oxoethyl 3-(3-cyanophenyl)acrylate]	64 (≈ 120 µM)	2 (≈ 3.75 µM)	128 (≈ 240 µM)	8 (≈ 15 µM)	16 (≈ 30 µM)	2 (≈ 3.75 µM)	better than that of the positive controls	> 200	29.2	78.5		
C=C[C@]1(C)C[C@@H](OC(=O)COC(=O)/C=C/c2ccc([N+](=O)[O-])cc2)[C@]2(C)[C@H](C)CC[C@]3(CCC(=O)[C@H]32)[C@@H](C)[C@@H]1O [Compound 1, (E)-2-(((3aR,4R,5R,8S,9R,12R)-8-hydroxy-4,7,9,12-tetramethyl-3-oxo-7-vinyldecahydro-4,9a-propanocyclopenta[8]annulen-5-yl)oxy)-2-oxoethyl 3-(4-nitrophenyl)acrylate]	32 (≈ 57.8 µM)	8 (≈ 14.4 µM)	64 (≈ 116 µM)	2 (≈ 3.61 µM)	4 (≈ 7.22 µM)	2 (≈ 3.61 µM)	better than that of the positive controls	> 200	> 200	> 200	as much as tiamulin	
C=C[C@]1(C)C[C@@H](OC(=O)CSCCN(CC)CC)[C@]2(C)[C@H](C)CC[C@]3(CCC(=O)[C@H]32)[C@@H](C)[C@@H]1O [Tiamulin, reference compound]	128 (≈ 259 µM)	64 (≈ 130 µM)	64 (≈ 130 µM)	256 (≈ 518 µM)	128 (≈ 259 µM)	16 (≈ 32.4 µM)		> 200	84.9	27.1		
C=C[C@]1(C)C[C@@H](OC(=O)COC(=O)/C=C/c2ccc(F)c(Cl)c2)[C@]2(C)[C@H](C)CC[C@]3(CCC(=O)[C@H]32)[C@@H](C)[C@@H]1O [Compound 20, (E)-2-(((3aR,4R,5R,8S,9R,12R)-8-hydroxy-4,7,9,12-tetramethyl-3-oxo-7-vinyldecahydro-4,9a-propanocyclopenta[8]annulen-5-yl)oxy)-2-oxoethyl 3-(3-chloro-4-fluorophenyl)acrylate]	64 (≈ 114 µM)	16 (≈ 28.5 µM)	> 256	32 (≈ 57 µM)	64 (≈ 114 µM)	32 (≈ 57 µM)						
C=C[C@]1(C)C[C@@H](OC(=O)COC(=O)/C=C/c2ccc(N(C)C)cc2)[C@]2(C)[C@H](C)CC[C@]3(CCC(=O)[C@H]32)[C@@H](C)[C@@H]1O [Compound 10, (E)-2-(((3aR,4R,5R,8S,9R,12R)-8-hydroxy-4,7,9,12-tetramethyl-3-oxo-7-vinyldecahydro-4,9a-propanocyclopenta[8]annulen-5-yl)oxy)-2-oxoethyl 3-(4-(dimethylamino)phenyl)acrylate]	16 (≈ 29 µM)	1 (≈ 1.81 µM)	32 (≈ 58 µM)	2 (≈ 3.63 µM)	2 (≈ 3.63 µM)	1 (≈ 1.81 µM)	better than that of the positive controls	> 200	34.6	> 200	as much as tiamulin	better or equal to that of the three tested positive controls
C=C[C@]1(C)C[C@@H](OC(=O)COC(=O)/C=C/c2ccc(F)c(F)c2F)[C@]2(C)[C@H](C)CC[C@]3(CCC(=O)[C@H]32)[C@@H](C)[C@@H]1O [Compound 12, (E)-2-(((3aR,4R,5R,8S,9R,12R)-8-hydroxy-4,7,9,12-tetramethyl-3-oxo-7-vinyldecahydro-4,9a-propanocyclopenta[8]annulen-5-yl)oxy)-2-oxoethyl 3-(2,3,4-trifluorophenyl)acrylate]	64 (≈ 114 µM)	32 (≈ 56.9 µM)	128 (≈ 228 µM)	64 (≈ 114 µM)	128 (≈ 228 µM)	16 (≈ 28.4 µM)						
